The source of these data is paper PMC7004565, “Nucleotide inhibition of the pancreatic ATP-sensitive K^+ channel explored with patch-clamp fluorometry” (eLife, 2020).

“And” between values parts separate entries of the source, which are not always exact repeats. Equal entries are not always repeated. Where two headings read alike, the source gives them in different places.

The target of experiment [1] is T1, Kir6.2-GFP + SUR1 (Homo sapiens, UniProt Q14654). As to the kind of experiment: ANAP fluorescence quenching in excised patches (patch-clamp fluorometry). It is filed as binding. Set-up: full length, fully ANAP-labelled Kir6.2 protein was produced and successfully trafficked to the membrane in the presence of SUR1; expressed in transfected cells; host or cells: HEK-293T. To be noted: excised patches (PCF), Hill fit. As to the method:
Currents were measured as described above.
ANAP bleaching was corrected as for the unroofed binding experiments with Equation 1 (Figure 2—figure supplement 3A). Due to the lower signal-to-noise ratio for PCF compared to the unroofed membranes, we performed experiments from both high-to-low and low-to-high TNP-ATP concentrations to minimise artifacts from our bleaching corrections.

In experiment [2] the target is T1, Kir6.2-GFP + SUR1. Nature of the experiment: Bayesian MWC-type model fits to combined patch-clamp fluorometry data. Further details: full length, fully ANAP-labelled Kir6.2 protein was produced and successfully trafficked to the membrane in the presence of SUR1; expressed in transfected cells; host or cells: HEK-293T. It counts as biochemical. The source says: Our simultaneous binding and current measurements were well fit with a Monod-Wyman-Changeux (MWC)-type model (Figure 2D,E; [Monod et al., 1965]) which has been previously proposed to explain KATP channel inhibition ([Enkvetchakul and Nichols, 2003]; [Craig et al., 2008]; [Vedovato et al., 2015]). In our MWC-type model, each ligand binding event ( KA ) is independent and each bound ligand favours the closed state by the same factor ( D ). Simultaneous measurement of binding (fluorescence) and gating (current) allowed us to obtain well constrained fits to our model. To obtain free parameter ( L , KA , D ) estimates and verify that each parameter was well and uniquely determined, we employed a Bayesian Markov chain Monte Carlo (MCMC) method previously employed by [Hines et al. (2014)]. Using this approach, we constructed posterior probability distributions for the free parameters of our MWC-type model (Figure 2F, Table 3). […] Our estimate of L was quite low and broadly distributed. We repeated our fits with L fixed to a value consistent with previous single channel measurements (0.8, Popen=0.45; [John et al., 1998]; [Enkvetchakul et al., 2000]; [Ribalet et al., 2006]). This had only a very small effect on our estimates of D and KA (Figure 2—figure supplement 1). The broad distribution of L in our fit may represent current rundown which occurs during our patch-clamp recordings and is expected to affect the open-closed equilibrium.
In addition to the full MWC-type model we considered alternate models (Figure 2—figure supplement 2). These included a model in which only the first binding event influences the open-closed equilibrium of the channel (single-binding model; Figure 2—figure supplement 2B, Table 3), and an MWC-style model with an additional parameter C to allow for direct negative cooperativity between binding sites (negative cooperativity model; Figure 2—figure supplement 2C, Table 3). The single-binding model yielded very similar parameter estimates to our full MWC-type model (Figure 2—figure supplement 2D, Table 3). This is a consequence of D being so low that even in the MWC-type model most channels are closed when only a single nucleotide is bound. The cooperative model improved our fits, but not enough to justify the inclusion of an additional free parameter (see Discussion).
The MWC-type models considered (Figure 2 and Figure 2—figure supplement 2) were formulated as follows:(3) F/Fmax=KA[TNPATP](1+KA[TNPATP])^3+LDKA[TNPATP](1+DKA[TNPATP])^3/(1+KA[TNPATP])^4+L(1+DKA[TNPATP])^4 (4) open channels/total channels=L(1+DKA[TNPATP])^4/(1+KA[TNPATP])^4+L(1+DKA[TNPATP])^4
The first was similar to the MWC-type model, except that the channels close after one molecule of TNP-ATP binding with subsequent binding events having no effect.(7) F/Fmax=LDKA[TNPATP](1+3KA[TNPATP]+3KA2[TNPATP]^2+KA3[TNPATP]^3)+KA[TNPATP](1+KA[TNPATP])^3/L(1+4DKA[TNPATP]+6DKA2[TNPATP]^2+4DKA3[TNPATP]^3+DKA4[TNPATP]^4)+(1+KA[TNPATP])^4 (8) I/Imax=L(1+4DKA[TNPATP]+6DKA2[TNPATP]^2+4DKA3[TNPATP]^3+DKA4[TNPATP]^4)/L(1+4DKA[TNPATP]+6DKA2[TNPATP]^2+4DKA3[TNPATP]^3+DKA4[TNPATP]^4)+(1+KA[TNPATP])^4⋅1+L/L
The second alternate model was the same as the full MWC model, but with an additional term C describing binding cooperativity between Kir6.2 subunits.(9) F/Fmax=LDKA[TNPATP](1+3CDKA[TNPATP]+3C^2D^2KA2[TNPATP]^2+C^3D^3KA3[TNPATP]^3)+KA[TNPATP](1+3CKA[TNPATP])+3C^2KA2[TNPATP]^2+C^3KA3[TNPATP]^3)/L(1+4DKA[TNPATP]+6CD^2KA2[TNPATP]^2+4C^2D^3KA3[TNPATP]^3+C^3D^4KA4[TNPATP]^4)+1+4KA[TNPATP]+6CKA2[TNPATP]^2+4C^2KA3[TNPATP]^3+C^3KA4[TNPATP]^4 (10) I/Imax=L(1+4DKA[TNPATP]+6CD^2KA2[TNPATP]^2+4C^2D^3KA3[TNPATP]^3+C^3D^4KA4[TNPATP]^4)/L(1+4DKA[TNPATP]+6CD^2KA2[TNPATP]^2+4C^2D^3KA3[TNPATP]^3+C^3D^4KA4[TNPATP]^4)+1+4KA[TNPATP]+6C^2KA2[TNPATP]^2+4C^2KA3[TNPATP]^3+C^3KA4[TNPATP]^4⋅1+L/L […]
A general note: In patch-clamp work, channel activity is measured electrically.

Where [3] appears, read: Full MWC model, median estimate.
Setting [4] is: Single-site (single-binding) model.

T1 sequence (Q14654 whole entry): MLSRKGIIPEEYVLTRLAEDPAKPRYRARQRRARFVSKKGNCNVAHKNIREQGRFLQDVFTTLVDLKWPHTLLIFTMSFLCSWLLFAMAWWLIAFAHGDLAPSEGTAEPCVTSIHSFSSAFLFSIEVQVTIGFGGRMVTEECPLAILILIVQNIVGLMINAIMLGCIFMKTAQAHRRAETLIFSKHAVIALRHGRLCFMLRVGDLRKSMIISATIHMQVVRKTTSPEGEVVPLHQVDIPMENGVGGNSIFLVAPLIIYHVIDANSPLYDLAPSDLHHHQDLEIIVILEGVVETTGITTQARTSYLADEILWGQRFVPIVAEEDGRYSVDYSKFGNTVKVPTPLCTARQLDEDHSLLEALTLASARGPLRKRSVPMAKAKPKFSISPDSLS
T1 sequence (Q09428 whole entry partner): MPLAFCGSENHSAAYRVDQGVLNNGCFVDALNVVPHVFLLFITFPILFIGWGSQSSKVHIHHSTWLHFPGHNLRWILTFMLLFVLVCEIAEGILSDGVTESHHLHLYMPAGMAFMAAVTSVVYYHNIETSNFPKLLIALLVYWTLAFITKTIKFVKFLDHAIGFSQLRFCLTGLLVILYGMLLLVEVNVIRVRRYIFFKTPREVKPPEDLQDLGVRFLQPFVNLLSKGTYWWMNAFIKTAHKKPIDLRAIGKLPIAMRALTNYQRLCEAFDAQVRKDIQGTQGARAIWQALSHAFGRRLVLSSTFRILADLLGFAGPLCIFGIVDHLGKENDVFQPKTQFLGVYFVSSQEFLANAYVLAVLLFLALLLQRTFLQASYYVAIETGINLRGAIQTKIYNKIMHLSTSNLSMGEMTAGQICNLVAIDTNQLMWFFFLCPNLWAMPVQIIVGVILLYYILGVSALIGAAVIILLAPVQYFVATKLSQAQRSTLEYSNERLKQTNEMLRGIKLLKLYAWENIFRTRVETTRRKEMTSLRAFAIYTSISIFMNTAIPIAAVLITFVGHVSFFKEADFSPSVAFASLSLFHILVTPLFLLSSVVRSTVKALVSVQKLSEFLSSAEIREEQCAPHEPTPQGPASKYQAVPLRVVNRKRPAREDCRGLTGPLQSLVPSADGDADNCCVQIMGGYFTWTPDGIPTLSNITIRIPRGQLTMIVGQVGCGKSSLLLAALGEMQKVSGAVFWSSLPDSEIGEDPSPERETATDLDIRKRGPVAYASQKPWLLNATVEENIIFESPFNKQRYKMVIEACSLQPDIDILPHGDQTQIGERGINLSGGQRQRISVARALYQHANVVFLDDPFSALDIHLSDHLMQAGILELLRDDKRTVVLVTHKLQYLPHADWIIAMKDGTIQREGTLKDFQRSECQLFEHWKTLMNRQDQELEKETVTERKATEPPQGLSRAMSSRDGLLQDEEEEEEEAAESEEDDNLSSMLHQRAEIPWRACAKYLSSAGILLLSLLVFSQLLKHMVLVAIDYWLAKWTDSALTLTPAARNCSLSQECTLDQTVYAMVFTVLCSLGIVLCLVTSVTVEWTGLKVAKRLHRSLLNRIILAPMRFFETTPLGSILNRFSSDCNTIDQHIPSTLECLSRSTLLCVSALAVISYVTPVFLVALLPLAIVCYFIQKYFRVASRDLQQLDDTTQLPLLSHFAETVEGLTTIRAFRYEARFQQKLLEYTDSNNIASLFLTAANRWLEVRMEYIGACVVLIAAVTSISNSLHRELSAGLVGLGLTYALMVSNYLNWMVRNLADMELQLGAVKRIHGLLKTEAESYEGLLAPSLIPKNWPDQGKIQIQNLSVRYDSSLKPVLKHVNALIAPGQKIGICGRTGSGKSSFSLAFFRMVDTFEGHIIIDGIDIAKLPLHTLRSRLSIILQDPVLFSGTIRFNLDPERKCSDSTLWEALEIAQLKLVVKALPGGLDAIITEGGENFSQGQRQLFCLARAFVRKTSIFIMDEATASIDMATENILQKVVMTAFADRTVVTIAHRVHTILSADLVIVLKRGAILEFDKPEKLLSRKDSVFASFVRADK

On to `Nc1ncnc2c1ncn2[C@@H]1O[C@H](COP(=O)(O)OP(=O)(O)OP(=O)(O)O)[C@H]2OC3(O[C@H]21)C([N+](=O)[O-])=CC(=[N+]([O-])[O-])C=C3[N+](=O)[O-]` (stereo partly shown) [TNP-ATP, trinitrophenyl-ATP], for which the “h (Hill coefficient) fluorescence quenching” value on Kir6.2-GFP + SUR1 [1] turned out to be 0.87. The Emax on Kir6.2-GFP + SUR1 [1] (fraction) came out at 100%. Also, at Kir6.2-GFP + SUR1 [1] (n = 9), the EC50 was 77.7 µM and 77.6 µM. The KA on Kir6.2-GFP + SUR1 [2] (Full MWC model, PCF, inhibitory site on Kir6.2) stood at 21000 M⁻¹. Besides, the Kd at Kir6.2-GFP + SUR1 [2] (Full MWC model, from KA, read-out: KD) is 47.9 µM and 48 µM; on Kir6.2-GFP + SUR1 [2] (Negative cooperativity model, read-out: KA (intrinsic binding affinity to the closed state) (converted)) it was 15.1 µM; on Kir6.2-GFP + SUR1 [2] (Single-site (single-binding) model, read-out: KA (intrinsic binding affinity to the closed state) (converted)), 46.8 µM. Also, at Kir6.2-GFP + SUR1 [2] (Full MWC model, linear value), the L is on record as 0.09. Besides, the “D (factor by which nucleotide binding favours channel closure)” value on Kir6.2-GFP + SUR1 [2] (setting [3]) was 0.04; on Kir6.2-GFP + SUR1 [2] (Negative cooperativity model) it was 0.15; at Kir6.2-GFP + SUR1 [2] (setting [4]), 0.05. Besides, the “L (unliganded open-closed equilibrium constant)” value is reported as −1.05 log10 at Kir6.2-GFP + SUR1 [2] (setting [3]), −0.42 log10 at Kir6.2-GFP + SUR1 [2] (Negative cooperativity model) and −1.06 log10 at Kir6.2-GFP + SUR1 [2] (setting [4]). Further, the Popen on Kir6.2-GFP + SUR1 [2] (Full MWC model, unliganded, from L) is listed as 0.08. In addition, the “C (binding cooperativity between Kir6.2 subunits)” value at Kir6.2-GFP + SUR1 [2] (Negative cooperativity model) was 0.17.

The term Emax denotes the maximal effect, on the per cent scale that the assay sets. By EC50 is commonly meant the concentration at which the effect is half-maximal.
